From ChEMBL document CHEMBL3826941, “Optimization of pyrazole-containing 1,2,4-triazolo-[3,4-b]thiadiazines, a new class of STAT3 pathway inhibitors” (Bioorg Med Chem Lett, 2016)
Activity calls are given as the source filed them. The calls are words filed in the database; no cut-off is given here.

Legend:
[1] = Antiproliferative activity against human CAL33 cells assessed as cell growth inhibition; format: functional, CAL-33
[2] = Antiproliferative activity against human 686LN cells assessed as cell growth inhibition; format: functional
FaDu = assay: Antiproliferative activity against human FADU cells assessed as cell growth inhibition; format: functional
[3] = Antiproliferative activity against human OSC19 cells assessed as cell growth inhibition; format: functional
[4] = target: T1, Signal transducer and activator of transcription 1-alpha/beta (Homo sapiens) (UniProt P42224); assay: Inhibition of IFNgamma-induced STAT1 (unknown origin) at 50 uM
T1 sequence (whole entry): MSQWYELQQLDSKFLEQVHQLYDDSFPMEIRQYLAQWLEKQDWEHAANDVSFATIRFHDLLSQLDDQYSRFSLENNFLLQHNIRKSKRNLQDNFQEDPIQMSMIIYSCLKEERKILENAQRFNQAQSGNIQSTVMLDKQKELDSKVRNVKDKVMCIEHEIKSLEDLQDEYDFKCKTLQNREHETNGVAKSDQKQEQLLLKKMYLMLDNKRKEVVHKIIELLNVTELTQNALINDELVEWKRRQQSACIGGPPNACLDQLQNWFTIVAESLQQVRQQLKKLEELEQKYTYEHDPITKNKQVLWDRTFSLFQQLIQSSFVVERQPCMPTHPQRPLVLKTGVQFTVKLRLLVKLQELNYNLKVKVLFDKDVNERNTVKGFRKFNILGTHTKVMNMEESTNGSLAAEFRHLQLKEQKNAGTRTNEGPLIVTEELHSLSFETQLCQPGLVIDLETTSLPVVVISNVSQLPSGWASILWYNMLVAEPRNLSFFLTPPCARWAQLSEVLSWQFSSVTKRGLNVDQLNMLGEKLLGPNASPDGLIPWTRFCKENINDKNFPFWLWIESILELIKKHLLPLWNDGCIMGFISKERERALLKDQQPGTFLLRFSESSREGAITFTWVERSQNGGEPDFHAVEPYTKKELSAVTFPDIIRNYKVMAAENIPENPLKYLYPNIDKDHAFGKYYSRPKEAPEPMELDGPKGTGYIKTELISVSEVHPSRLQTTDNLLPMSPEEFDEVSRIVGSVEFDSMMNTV

Liver microsome = assay: Half life in human liver microsomes; format: ADME
[5] = Half life in mouse liver microsomes; format: ADME
[6] = target: Signal transducer and activator of transcription 3 (Homo sapiens) (UniProt P40763); assay: Inhibition of STAT3 phosphorylation at Tyr705 in IL6-induced human CAL33 cells assessed as phosphorylated STAT3 at Tyr705 to STAT3 ratio at 100 uM by Western blot analysis; format: cell-based; details: CAL-33
Chain of Signal transducer and activator of transcription 3 (Homo sapiens) (P40763 whole entry): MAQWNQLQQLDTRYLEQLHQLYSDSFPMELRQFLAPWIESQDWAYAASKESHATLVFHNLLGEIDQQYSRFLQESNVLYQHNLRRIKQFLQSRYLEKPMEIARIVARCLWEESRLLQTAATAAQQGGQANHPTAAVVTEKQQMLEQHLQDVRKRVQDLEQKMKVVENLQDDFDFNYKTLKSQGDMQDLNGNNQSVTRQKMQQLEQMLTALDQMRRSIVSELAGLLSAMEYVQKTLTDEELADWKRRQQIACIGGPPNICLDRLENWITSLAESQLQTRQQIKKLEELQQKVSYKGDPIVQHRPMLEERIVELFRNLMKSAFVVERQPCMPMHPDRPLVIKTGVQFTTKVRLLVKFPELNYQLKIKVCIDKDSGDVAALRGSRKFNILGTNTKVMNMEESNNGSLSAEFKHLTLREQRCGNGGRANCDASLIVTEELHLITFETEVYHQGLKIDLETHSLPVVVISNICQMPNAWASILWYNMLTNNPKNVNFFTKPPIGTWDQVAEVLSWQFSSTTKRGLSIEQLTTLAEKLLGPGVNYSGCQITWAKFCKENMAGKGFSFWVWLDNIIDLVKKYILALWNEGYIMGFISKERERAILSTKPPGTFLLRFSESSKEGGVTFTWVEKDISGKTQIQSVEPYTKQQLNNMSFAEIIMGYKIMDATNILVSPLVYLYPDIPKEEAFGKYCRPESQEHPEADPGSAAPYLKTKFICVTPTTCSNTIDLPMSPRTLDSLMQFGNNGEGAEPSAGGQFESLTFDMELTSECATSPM

[7] = target: Signal transducer and activator of transcription 3 (Homo sapiens) (UniProt P40763); assay: Inhibition of STAT3 phosphorylation at Tyr705 in IL6-induced human CAL33 cells assessed as phosphorylated STAT3 at Tyr705 to STAT3 ratio at 30 uM by Western blot analysis; format: cell-based; details: CAL-33
[8] = target: Signal transducer and activator of transcription 3 (Homo sapiens) (UniProt P40763); assay: Inhibition of STAT3 phosphorylation at Tyr705 in IL6-induced human CAL33 cells assessed as phosphorylated STAT3 at Tyr705 to STAT3 ratio at 10 uM by Western blot analysis; format: cell-based; details: CAL-33
[9] = target: Signal transducer and activator of transcription 3 (Homo sapiens) (UniProt P40763); assay: Inhibition of STAT3 in IL6-induced human CAL33 cells assessed as inhibition of Bcl-XL gene levels at 3 to 100 uM by Western blot analysis; format: cell-based; details: CAL-33
[10] = target: Signal transducer and activator of transcription 3 (Homo sapiens) (UniProt P40763); assay: Inhibition of STAT3 in IL6-induced human CAL33 cells assessed as inhibition of cyclin D1 gene levels at 3 to 100 uM by Western blot analysis; format: cell-based; details: CAL-33
[11] = target: Signal transducer and activator of transcription 3 (Homo sapiens) (UniProt P40763); assay: Inhibition of STAT3 phosphorylation at Tyr705 in IL6-induced human CAL33 cells at 3 to 100 uM by Western blot analysis; format: cell-based; details: CAL-33

## CC(C)CC1Sc2nnc(-c3[nH]nc4c3CCC4)n2N=C1c1ccc(Cl)c(Cl)c1 (stereo unspecified)
[1]; Homo sapiens, CAL-33
  GI50: 3.5 µM

## COc1ccc(C2=Nn3c(nnc3-c3cc(-c4ccc(F)cc4)n[nH]3)SC2C)cc1 (stereo unspecified)
[1]; Homo sapiens, CAL-33
  GI50: 29.5 µM

## CC1Sc2nnc(-c3[nH]nc4c3CCC4)n2N=C1c1ccc(Cl)c(Cl)c1 (stereo unspecified)
[1]; Homo sapiens, CAL-33
  GI50: 1.9 µM

## COCCC1Sc2nnc(-c3cc(-c4ccccc4)n[nH]3)n2N=C1c1ccc(OC)cc1 (stereo unspecified)
[1]; Homo sapiens, CAL-33
  GI50: 0.04 µM

## COc1ccc(C2=Nn3c(nnc3-c3[nH]nc4c3CCC4)SC2C(C)C)cc1 (stereo unspecified)
[1]; Homo sapiens, CAL-33
  GI50: 0.4 µM

## COc1ccc(C2=Nn3c(nnc3-c3cc(-c4ccc(Cl)cc4)n[nH]3)SC2C)cc1 (stereo in doubt; form 3)
[1]
  GI50: 21.8 µM

## COc1ccc(C2=Nn3c(nnc3-c3cc(-c4ccc(Cl)cc4)n[nH]3)SC2C)cc1 (stereo in doubt; form 1) [listing 1 of 2 here]
[2]
  GI50: 17.4 µM
FaDu
  GI50: 8.4 µM
[1]
  GI50: 2.2 µM
[3]
  GI50: 14.9 µM

## CC1(C)Sc2nnc(-c3[nH]nc4c3CCC4)n2N=C1c1ccc(Cl)c(Cl)c1
[1]; Homo sapiens, CAL-33
  GI50: > 50 µM

## COc1ccc(C2=Nn3c(nnc3-c3[nH]nc4c3CCC4)SC2C)cc1 (stereo unspecified)
[2]
  GI50: 0.88 µM
FaDu
  GI50: 1.3 µM
[1]; Homo sapiens, CAL-33
  GI50: 0.18 µM
[3]
  GI50: 3.1 µM

## CC(C)C1Sc2nnc(-c3[nH]nc4c3CCC4)n2N=C1c1ccc(Cl)c(Cl)c1 (stereo unspecified)
[1]; Homo sapiens, CAL-33
  GI50: 8.2 µM

## Clc1ccc(C2=Nn3c(nnc3-c3[nH]nc4c3CCC4)SC2)cc1Cl
[4]
  inhibition: inactive
[2]
  GI50: 14 µM
FaDu
  GI50: 14 µM
[1]; Homo sapiens, CAL-33
  GI50: 14 µM
[3]
  GI50: 14 µM
Liver microsome
  t1/2: 14 min
[5]
  t1/2: 4 min

## COc1ccc(C2=Nn3c(nnc3-c3cc(-c4ccc(Cl)cc4)n[nH]3)SC2C)cc1 (stereo in doubt; form 1) [listing 2 of 2 here]
[6]
  inhibition: 99.7%
[7]
  inhibition: 55%
[8]
  inhibition: 21%
[9]
  inhibition: Active
[10]
  inhibition: Active
[11]
  inhibition: Active

## COc1ccc(C2=Nn3c(nnc3-c3cc(-c4ccccc4)n[nH]3)SC2CCN)cc1 (stereo unspecified)
[1]; Homo sapiens, CAL-33
  GI50: 2.5 µM

## COc1ccc(C2=Nn3c(nnc3-c3cc(-c4ccccc4)n[nH]3)SC2CC(C)C)cc1 (stereo unspecified)
[1]; Homo sapiens, CAL-33
  GI50: 0.5 µM

## CC1Sc2nnc(-c3cc(-c4ccc(F)cc4)n[nH]3)n2N=C1c1ccccc1 (stereo unspecified)
[1]; Homo sapiens, CAL-33
  GI50: 36.3 µM

## CC1Sc2nnc(-c3cc(-c4ccccc4)n[nH]3)n2N=C1c1ccccc1 (stereo unspecified)
[6]
  inhibition: 99%
[7]
  inhibition: 28%
[8]
  inhibition: 15%
[9]
  inhibition: Active
[10]
  inhibition: Active
[2]
  GI50: 32.2 µM
FaDu
  GI50: 32.7 µM
[1]; Homo sapiens, CAL-33
  GI50: 34.1 µM
[3]
  GI50: 31.3 µM
Liver microsome
  t1/2: 27 min
[5]
  t1/2: 10 min
[11]
  inhibition: Active

## COc1ccc(C2=Nn3c(nnc3-c3cc(-c4ccc(Cl)cc4)n[nH]3)SC2C)cc1 (stereo in doubt; form 2)
[1]
  GI50: 2.7 µM

## Clc1ccc(C2=Nn3c(nnc3-c3cc(-c4ccccc4)[nH]n3)SC2)cc1
[4]
  inhibition: inactive
[2]
  GI50: 27 µM
FaDu
  GI50: 27 µM
[1]; Homo sapiens, CAL-33
  GI50: 27 µM
[3]
  GI50: 27 µM

## Clc1ccc(C2=Nn3c(nnc3-c3[nH]nc4c3CCC4)SC2Cc2ccccc2)cc1Cl (stereo unspecified)
[1]; Homo sapiens, CAL-33
  GI50: 3.3 µM
